# In ChEMBL document CHEMBL5233226 (Eur J Med Chem, 2020):
# What was measured:
# Plasma kallikrein [1] = molecular target: T1, Plasma kallikrein (Homo sapiens, UniProt P03952); experiment: Inhibition of plasma kallikrein (unknown origin)
# Plasminogen = Plasminogen (Homo sapiens, UniProt P00747); experiment: Inhibition of plasmin (unknown origin)
# Plasma kallikrein [2] = molecular target: T1, Plasma kallikrein; experiment: Inhibition of human plasma kallikrein usingPro-Phe-Arg-AMC as substrate incubated for 5 mins; assay type: single protein
# Prothrombin = Prothrombin (Homo sapiens, UniProt P00734); experiment: Inhibition of thrombin (unknown origin)
# Coagulation factor X = Coagulation factor X (Homo sapiens, UniProt P00742); experiment: Inhibition of fXa (unknown origin)
# Coagulation factor XI [3] = molecular target: T2, Coagulation factor XI (Homo sapiens, UniProt P03951); experiment: Inhibition of fXIa (unknown origin)
# Coagulation factor XII [4] = molecular target: T3, Coagulation factor XII (Homo sapiens, UniProt P00748); experiment: Inhibition of fXIIa (unknown origin)
# T3 sequence (P00748 whole entry): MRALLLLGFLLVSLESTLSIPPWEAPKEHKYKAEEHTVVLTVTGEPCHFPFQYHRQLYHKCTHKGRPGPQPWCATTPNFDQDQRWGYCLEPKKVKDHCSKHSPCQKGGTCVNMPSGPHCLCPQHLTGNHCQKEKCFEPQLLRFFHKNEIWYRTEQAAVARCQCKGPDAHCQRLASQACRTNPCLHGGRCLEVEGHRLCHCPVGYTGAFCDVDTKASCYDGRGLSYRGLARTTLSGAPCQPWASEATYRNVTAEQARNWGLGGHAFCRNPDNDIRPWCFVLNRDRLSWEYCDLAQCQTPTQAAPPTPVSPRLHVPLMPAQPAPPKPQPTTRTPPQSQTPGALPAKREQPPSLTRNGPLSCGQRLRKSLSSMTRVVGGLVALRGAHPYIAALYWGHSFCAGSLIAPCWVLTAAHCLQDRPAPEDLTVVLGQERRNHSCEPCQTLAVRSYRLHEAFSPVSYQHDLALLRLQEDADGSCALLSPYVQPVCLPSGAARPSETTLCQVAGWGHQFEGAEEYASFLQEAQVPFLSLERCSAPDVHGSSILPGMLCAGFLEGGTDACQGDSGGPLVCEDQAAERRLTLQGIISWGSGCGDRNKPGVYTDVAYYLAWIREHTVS
# Plasma kallikrein [5] = molecular target: T1, Plasma kallikrein; experiment: Inhibition of human plasma kallikrein using H-D-Pro-Phe-Arg-p-nitroaniline as substrate assessed as inhibition constant
# Kallikrein-1 [6] = molecular target: T4, Kallikrein-1 (Homo sapiens, UniProt P06870); experiment: Inhibition of KLK1 (unknown origin)
# Plasma kallikrein [7] = molecular target: T1, Plasma kallikrein; experiment: Inhibition of human plasma kallikrein incubated for 1 hrs
# Coagulation factor XI [8] = molecular target: T2, Coagulation factor XI; experiment: Inhibition of human fXIa incubated for 1 hrs
# Plasma kallikrein [9] = molecular target: T1, Plasma kallikrein; experiment: Inhibition of human plasma kallikrein using H-DPro-Phe-Arg-AFC as substrate
# Coagulation factor XII [10] = molecular target: T3, Coagulation factor XII; experiment: Inhibition of human fXIIa incubated for 1 hrs
# Kallikrein-1 [11] = molecular target: T4, Kallikrein-1; experiment: Inhibition of human KLK1 using H-DVal-Leu-Arg-AFC as substrate
# T2 sequence (P03951 19-387 limits assumed): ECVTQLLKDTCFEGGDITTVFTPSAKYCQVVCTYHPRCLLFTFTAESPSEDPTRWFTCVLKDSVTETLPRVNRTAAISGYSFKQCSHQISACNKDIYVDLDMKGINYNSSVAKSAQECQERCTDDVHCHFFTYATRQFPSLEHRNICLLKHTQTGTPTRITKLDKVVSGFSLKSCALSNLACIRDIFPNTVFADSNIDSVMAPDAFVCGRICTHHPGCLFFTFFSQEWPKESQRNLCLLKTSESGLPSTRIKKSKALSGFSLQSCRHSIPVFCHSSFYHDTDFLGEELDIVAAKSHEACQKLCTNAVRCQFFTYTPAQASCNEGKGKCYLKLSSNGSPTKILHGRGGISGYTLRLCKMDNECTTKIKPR
# T2 sequence (P03951 388-625 limits assumed): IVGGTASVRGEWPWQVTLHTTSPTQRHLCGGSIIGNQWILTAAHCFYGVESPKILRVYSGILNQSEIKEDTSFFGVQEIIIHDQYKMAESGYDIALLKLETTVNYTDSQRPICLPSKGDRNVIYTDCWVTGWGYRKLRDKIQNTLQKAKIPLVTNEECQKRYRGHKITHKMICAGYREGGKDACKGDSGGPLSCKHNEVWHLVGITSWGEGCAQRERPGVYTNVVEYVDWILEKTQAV
# T1 sequence (P03952 20-390 limits assumed): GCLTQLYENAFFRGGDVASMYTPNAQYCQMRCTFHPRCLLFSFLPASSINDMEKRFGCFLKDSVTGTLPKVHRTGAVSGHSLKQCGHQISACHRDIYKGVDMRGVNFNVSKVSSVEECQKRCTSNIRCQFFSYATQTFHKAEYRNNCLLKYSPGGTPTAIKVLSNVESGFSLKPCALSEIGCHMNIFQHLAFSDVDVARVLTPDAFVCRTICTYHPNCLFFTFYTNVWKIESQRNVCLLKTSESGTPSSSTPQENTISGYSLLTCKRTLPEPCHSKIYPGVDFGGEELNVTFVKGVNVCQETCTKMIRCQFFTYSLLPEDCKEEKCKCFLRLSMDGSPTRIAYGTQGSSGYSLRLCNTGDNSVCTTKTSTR
# T1 sequence (P03952 391-638 limits assumed): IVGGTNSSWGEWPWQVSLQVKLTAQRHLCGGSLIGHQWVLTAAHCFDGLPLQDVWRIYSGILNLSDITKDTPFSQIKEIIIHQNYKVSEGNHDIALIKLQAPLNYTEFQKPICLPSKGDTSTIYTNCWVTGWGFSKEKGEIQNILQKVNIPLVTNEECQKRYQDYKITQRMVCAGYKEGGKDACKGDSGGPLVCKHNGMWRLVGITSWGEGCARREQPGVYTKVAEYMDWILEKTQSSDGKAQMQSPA
# T4 sequence (P06870 whole entry): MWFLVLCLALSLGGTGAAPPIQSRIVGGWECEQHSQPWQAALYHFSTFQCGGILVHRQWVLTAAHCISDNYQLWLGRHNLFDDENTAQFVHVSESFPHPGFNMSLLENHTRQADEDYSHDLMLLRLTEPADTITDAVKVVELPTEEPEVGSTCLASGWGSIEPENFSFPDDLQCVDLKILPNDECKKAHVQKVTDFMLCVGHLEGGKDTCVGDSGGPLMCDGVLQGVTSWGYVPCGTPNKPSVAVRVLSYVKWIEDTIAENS
# Sequence of Plasminogen (P00747 97-580 limits assumed): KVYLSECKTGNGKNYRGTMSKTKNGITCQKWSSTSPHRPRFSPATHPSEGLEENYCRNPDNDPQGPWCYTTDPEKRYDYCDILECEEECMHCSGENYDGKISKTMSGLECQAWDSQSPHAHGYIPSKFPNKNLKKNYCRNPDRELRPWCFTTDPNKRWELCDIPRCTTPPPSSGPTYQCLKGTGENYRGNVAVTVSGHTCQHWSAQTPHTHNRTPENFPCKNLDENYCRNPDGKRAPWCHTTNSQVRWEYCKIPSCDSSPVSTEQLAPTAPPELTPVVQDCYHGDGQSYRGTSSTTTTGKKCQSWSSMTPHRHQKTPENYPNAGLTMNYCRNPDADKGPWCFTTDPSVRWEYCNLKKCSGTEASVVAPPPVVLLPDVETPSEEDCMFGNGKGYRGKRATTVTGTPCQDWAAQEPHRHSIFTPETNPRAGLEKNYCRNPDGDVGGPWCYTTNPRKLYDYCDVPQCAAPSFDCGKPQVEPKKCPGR
# Sequence of Plasminogen (P00747 581-810 limits assumed): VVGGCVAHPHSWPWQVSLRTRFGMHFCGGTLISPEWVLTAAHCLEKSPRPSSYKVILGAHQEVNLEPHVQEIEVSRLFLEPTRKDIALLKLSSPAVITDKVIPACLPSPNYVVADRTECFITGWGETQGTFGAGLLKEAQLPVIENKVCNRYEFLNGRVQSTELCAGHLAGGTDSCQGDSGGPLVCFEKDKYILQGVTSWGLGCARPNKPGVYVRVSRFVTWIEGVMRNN
# Sequence of Coagulation factor X (P00742 41-179 limits assumed): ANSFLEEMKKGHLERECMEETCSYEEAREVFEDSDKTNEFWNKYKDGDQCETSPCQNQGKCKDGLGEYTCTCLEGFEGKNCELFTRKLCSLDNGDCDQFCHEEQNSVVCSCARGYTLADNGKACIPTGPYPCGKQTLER
# Sequence of Coagulation factor X (P00742 235-488 limits assumed): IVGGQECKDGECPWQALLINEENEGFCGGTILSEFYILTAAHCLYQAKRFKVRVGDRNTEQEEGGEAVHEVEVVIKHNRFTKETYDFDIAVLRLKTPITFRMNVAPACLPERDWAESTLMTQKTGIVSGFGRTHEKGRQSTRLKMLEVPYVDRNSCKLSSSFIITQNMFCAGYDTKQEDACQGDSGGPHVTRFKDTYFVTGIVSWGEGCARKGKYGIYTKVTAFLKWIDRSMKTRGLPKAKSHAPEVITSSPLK
smiles,measurement,setting,value
COC(=O)c1ccc(NC(=O)[C@H](CCCCN)NC(=O)C2CCC(CN)CC2)cc1 (stereo partly drawn),IC50,Plasma kallikrein [1],50000 nM
same,IC50,Plasminogen,> 500000 nM
Cc1cc(N)nc(C)c1CNC(=O)c1cncc(Cc2ccc3ncc(Cl)cc3c2)c1,IC50,Plasma kallikrein [2],< 100 nM
N=C(N)NCCCC[C@H](NC(=O)C1CCC(CN)CC1)C(=O)Nc1ccc(C(=O)O)cc1 (stereo partly drawn),IC50,Plasma kallikrein [1],14000 nM
N=C(N)c1ccc(CNC(=O)c2cnn(Cc3ccccc3)c2)cc1,IC50,Plasma kallikrein [1],90 nM
same,IC50,Prothrombin,> 10000 nM
same,IC50,Coagulation factor X,> 10000 nM
same,IC50,Coagulation factor XI [3],> 10000 nM
same,IC50,Coagulation factor XII [4],> 10000 nM
NC(CCC1CC1)(c1ccc(F)c(NC(=O)[C@H]2CC(F)(F)CN2C(=O)Nc2ccc(Cl)cn2)c1)c1ccccn1 (stereo partly drawn),IC50,Plasma kallikrein [5],< 50 nM
Nc1nn(Cc2ccc(Cn3ccccc3=O)cc2)cc1C(=O)NCCOc1cccc(Cl)c1,IC50,Coagulation factor XI [3],2.9 nM
same,IC50,Kallikrein-1 [6],2.9 nM
CO[C@@H]1C[C@H](C(=O)Nc2cc(C(N)(CCC3CC3)c3ccccn3)ccc2F)N(C(=O)Nc2ccc(Cl)cn2)C1 (stereo partly drawn),IC50,Plasma kallikrein [5],< 50 nM
Cc1cc(N)nc(C)c1CNC(=O)c1cnn(Cc2ccc(Cn3cccn3)cc2)c1,IC50,Plasma kallikrein [7],2.4 nM
same,IC50,Coagulation factor XI [8],106000 nM
CCCOC(c1ccccc1)c1cccc(NC(=O)c2cc(C(F)(F)F)nn2-c2cccc(CN)c2)c1 (stereo not drawn),IC50,Plasma kallikrein [5],> 50000 nM
Fc1c(CNc2ncnc3nc(Cc4ccc5ncc(Cl)cc5c4)[nH]c23)ccc2[nH]cc(Cl)c12,IC50,Plasma kallikrein [2],< 100 nM
Nc1nn(Cc2ccc(Cn3ccccc3=O)cc2)cc1C(=O)N[C@H]1CCN(c2cccc(Cl)c2)C1,IC50,Plasma kallikrein [1],4.8 nM
NCc1cccc(-n2nc(C(F)(F)F)cc2C(=O)Nc2cccc(C(OCC3CC3)c3ccccc3)c2)c1 (stereo not drawn),IC50,Plasma kallikrein [5],100 nM
same,Ki,Plasma kallikrein [5],0.1 nM
CC(C)COC(=O)c1ccc(NC(=O)[C@H](CCCNC(=N)N)NC(=O)C2CCC(CN)CC2)cc1 (stereo partly drawn),IC50,Plasma kallikrein [1],15000 nM
same,IC50,Plasminogen,370000 nM
Fc1cc2[nH]cc(Cl)c2cc1CNc1ncnc2nc(Cc3ccc4ncc(Cl)cc4c3)[nH]c12,IC50,Plasma kallikrein [2],< 100 nM
NCc1cccc(-n2nc(C(F)(F)F)cc2C(=O)Nc2cc(C(OCC3CC3)c3ccccc3O)ccc2F)c1 (stereo not drawn),IC50,Plasma kallikrein [5],100 nM
CCOc1ccc(C[C@@H](NC(=O)c2sccc2C)C(=O)N[C@@H](Cc2ccccc2)C(=O)NCc2ccc(CN)cc2)cc1,IC50,Plasma kallikrein [9],10 nM
NC(CCC1CC1)(c1ccc(F)c(NC(=O)[C@H]2C[C@@H](O)CN2C(=O)Nc2ccc(Cl)cc2)c1)c1ccccn1 (stereo partly drawn),IC50,Plasma kallikrein [5],< 50 nM
Cc1nc(N)cc2c1CNC(=O)c1cnn(c1)Cc1ccc(Cn3cccn3)cc1OCCC/C=C\CCO2,IC50,Plasma kallikrein [7],2 nM
same,IC50,Coagulation factor XII [10],3600 nM
CO[C@@H]1C[C@H](C(=O)Nc2cc(C(N)(CCC3CC3)c3ccccn3)ccc2F)N(C(=O)Nc2ccc(Cl)cc2)C1 (stereo partly drawn),IC50,Plasma kallikrein [5],< 50 nM
COCc1nn(Cc2ccc(Cn3cccn3)cc2)cc1C(=O)NCc1ccc2c(N)nccc2c1C,IC50,Plasma kallikrein [9],0.56 nM
N=C(N)c1cccc(-n2nc(C(F)(F)F)cc2C(=O)Nc2cc(C(NCC3CC3)c3ccccc3)ccc2F)c1 (stereo not drawn),IC50,Plasma kallikrein [5],100 nM
CCOc1ccc(C[C@@H](NC(=O)c2ccccc2)C(=O)N[C@H](C(=O)NCc2ccc(CN)cc2)[C@H](O)c2ccccc2)cc1,IC50,Plasma kallikrein [9],20 nM
same,IC50,Kallikrein-1 [11],7200 nM
